Assay results: US20260306502A1, “MITOCHONDRIAL UNCOUPLERS FOR TREATMENT OF METABOLIC DISEASES AND CANCER” (Mito Biopharma, LLC, priority 2022, published 2026)
Read-outs that look alike come from different tables or passages of the source.

Columns and labels:
[1] = tested on: HepG2; test: Cell growth inhibition assay (SRB), HepG2; format: cell-based; conditions: Homo sapiens, HepG2, 48 h
Procedure: (§1) Cell growth inhibition assays were performed using a protocol standardized by National Cancer Institute (NCI) for evaluating anti-cancer drugs. Various mammalian cell lines were used for the assays. Briefly, the cells were inoculated into 96 well microtiter plates. After cell inoculation, the microtiter plates were incubated for cell growth for 24 h prior to the addition of compounds. After 24 h, two plates of each cell line were fixed in situ with TCA, to represent a measurement of the cell population for each cell line at the time of compound addition (Tz). Test compounds were solubilized in dimethyl sulfoxide. At the time of test compound addition, five 10-fold or ½ log serial dilutions were made to provide a total of five test compound concentrations plus control. Aliquots of 100 μl of these different test compound dilutions were added to the appropriate microtiter wells already containing 100 μl of the medium, resulting in the required final test compound concentrations. Following test compound addition, the plates were incubated for an additional 48 h. The assay was terminated by the addition of cold TCA. Cells were fixed in situ with 50 μl of cold 50% (w/v) TCA (final concentration, 10% TCA), washed five times with tap water and air-dried. Sulforhodamine B (SRB) solution (100 μl) at 0.4% (w/v) in 1% acetic acid was added to each well, and plates were incubated for 10 minutes at room temperature. After staining, the unbound dye was removed by washing five times with 1% acetic acid and the plates were air-dried. The bound stain was subsequently solubilized with 10 mM trizma base, and the absorbance was read on an automated plate reader at a wavelength of 515 nm. Using the seven absorbance measurements [time zero, (Tz), control growth, (C), and test growth in the presence of a compound at the five concentration levels (Ti)], the percentage growth was calculated at each of the test compound concentrations levels.

[2] = tested on: C2C12 cells; test: Mitochondrial uncoupling activity by oxygen consumption rate (OCR) assay, Seahorse, in presence of oligomycin; format: cell-based, mouse; conditions: for minimal effective concentration: Mus musculus, C2C12, in the presence of oligomycin 2.5 μM, read-out: COCR-min: minimal concentration increasing OCR in the presence of oligomycin
Outline: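 Mouse C2C12 myoblasts grown in 10% FBS medium had OCR measured on Seahorse XF96/XF24 sequentially: basal, after 2.5 μM oligomycin (final), then after compound at varying concentrations. Rotenone/antimycin A confirmed mitochondrial origin. COCR-min is the minimal compound concentration inducing OCR in the presence of oligomycin.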

[3] = Rat pharmacokinetics study, oral gavage (Example B8); format: in vivo
Procedure: Pharmacokinetics of the testing compounds was determined in male SD rats, n=3. Briefly, each compound was prepared in 0.5% CMC-Na and 1% Tween in water to yield a homogeneous suspension at 1 mg/ml, and then administrated to 10 mg/kg via oral gavage. The animals were fasted overnight before dosing and fed for 4 hour post dosing with free access to water for all time. Blood samples were collected at pre-dose, 0.083, 0.25, 0.5, 1, 2, 4, 8 and 24 hours, into K2EDTA-coated tube via tail vein for serial sampling and cardiac puncture for terminal sampling. […] Plasma samples were stored at approximately −80° C. until analysis. The compound in the plasma samples were then extracted and concentrations determined by LC-MS/MS.

[4] = Metabolic stability assay in rat liver microsomes; format: in vitro ADME; conditions: for half-life at 1 µM: rat, liver microsomes
Procedure: The metabolic stability of the compounds was evaluated in incubation with rat liver microsomes.

[5] = PO pharmacokinetic study, oral exposure (Example B3); format: in vivo; conditions: for AUC at 24 h / AUC(0-t) at 24 h: blood, po; for AUC at 24 h: 10 mg/kg gavage; for Fold increase over Compound 27 in U.S. Pat. No. 10,227,315: ratio of oral AUC 24 hr
Procedure: The blood concentration of the compound was then determined at 0 (pre-dosing), 5 min, 15 min, 30 min, 1 hr, 2 hr, 4 hr, 8 hr, 24 hr time points by LC-MS/MS analysis (See Tables 1 and 2, vide supra).

[6] = tested on: cultured mammalian cells, the NIH-3T3 cells, C2C12 cells, and other mammalian cell lines; test: Mitochondrial membrane potential (MMP) assay, TMRE (or DilC1(5)) staining, related to OCR induction; format: cell-based; conditions: ratio of concentration leading to 10% MMP retention (90% MMP loss, TMRE) to minimal concentration leading to OCR increase
Procedure: Mitochondrial membrane potential assay was performed using the standard TMRE (tetramethylrhodamine ethyl ester) staining method with cultured mammalian cells, the NIH-3T3 cells, C2C12 cells, and other mammalian cell lines. Cells were seeded in 6-well plates and cultured in DMEM medium supplemented with 10% fetal bovine serum and 2 mM glutamine. Cells were allowed to grow to the logarithmic growth phase prior to experiments. The cells were treated with each individual compound at various concentrations for two hours, followed by staining with TMRE at a final concentration of 100 nM for 15 minutes. The cells were then washed once with PBS, and examined under fluorescence microscopy. Cells treated with various concentrations of niclosamide ethanolamine were used as a positive control.
In some examples, mitochondrial membrane potential was measured with DilC1(5) staining. Briefly, DilC1(5) was added to the cells to 50 nM final concentration and the cells were incubated at 37° C., 5% CO2, for 15 to 30 minutes. Cells were washed once by adding 2 mL of warm phosphate-buffered saline (PBS). Mitochondrial staining was determined by fluorescence microscopy with 633 nm excitation using standard filters for far-red emission.
Using the ratio between C10% TMRE (the concentration at which 10% MMP remains, i.e. 90% MMP is lost) and Cmin-OCR (the concentration at which minimal OCR induction is observed), we categorized the MMP-retaining uncouplers into two groups.

[7] = tested on: C2C12; test: Cell growth inhibition assay (SRB), C2C12; format: cell-based; conditions: Mus musculus, C2C12, 48 h
Procedure: as §1, with “Following test compound addition, the plates were incubated for an additional 48 h. The assay was terminated by the addition of cold TCA. Cells were fixed in situ with 50 μl of cold 50% (w/v) TCA (final concentration, 10% TCA), washed five times with tap water and air-dried. Sulforhodamine B (SRB) solution (100 μl) at 0.4% (w/v) in 1% acetic acid was added to each well, and plates were incubated for 10 minutes at room temperature. After staining, the unbound dye was removed by washing five times with 1% acetic acid and the plates were air-dried.” left out

[8] = tested on: animal models; conditions: mixed with food, cited from earlier work; for dose required to achieve efficacy, equivalent: equivalent of ppm in diet
[9] = tested on: high-fat diet (HFD)-induced diabetic mouse model; test: Efficacy in high-fat diet (HFD)-induced diabetic/fatty liver mouse model; format: in vivo; conditions: Mus musculus; HFD model, oral daily gavage; read-out: Efficacious dosage to reduce blood glucose in mouse models, oral daily gavage
Procedure: For HFD induced diabetic mouse model, C57Bl6 mice (male, n=6) were induced to obese and diabetic conditions by feeding high-fat diet (HFD, 60% fat calories, Research Diet, Inc. New Brunswick, NJ) for 3-4 months. […] During the 3-week period, the mice continued feeding HFD. […] The blood glucose levels were measured after an overnight fast, plasma insulin levels were tested after 5-6 hours fast, and the glycated HbA1c levels were determined in whole blood samples.
FIG. 15C and FIG. 15D show liver sections from mice fed HFD following 3 weeks of treatment with Compounds 25 and 64, respectively (P.O. dosing of 5 mg/kg, by daily gavage).
Experiments were similarly performed with other compounds, in either high-fat diet induced diabetes and fatty liver models, or in db/db mouse model, or in both, by daily oral gavage administration with low dosages.

[10] = in words, cited from earlier work
[11] = tested on: LX-2 cells (human hepatic stellate cells); test: Inhibition of TGFβ-induced hepatic stellate cell differentiation into myofibroblast-like cells; format: cell-based; conditions: TGFβ 10 ng/ml
Procedure: Liver fibrosis is one hallmark of NASH. […] This process could be modeled in vitro using the hepatic stellate differentiation experiment. The human hepatic stellate LX-2 cells were cultured within DMEM (Dulbecco's Modified Eagle Media, pH 7.4) supplied with 2% fetal bovine serum, 4.5 g/l glucose and 2 mM glutamine to 100 percent confluence. […] Cellular morphology was then examined under a microscope. As shown in FIG. 16 to FIG. 17, hepatic stellate cells could be induced by TGF-beta to differentiate into myofibroblast-like cells.

## O=C(Nc1nc2ccc(C(F)(F)F)cc2s1)c1cc(Cl)cc(CN2CCC(C(F)(F)F)CC2)c1O [Compound 57, 5-chloro-2-hydroxy-N-(6-(trifluoromethyl)benzo[d]thiazol-2-yl)-3-((4-(trifluoromethyl)piperidin-1-yl)methyl)benzamide]
[1]
  GI50: < 5 µM
[2]
  minimal effective concentration: < 5 µM

## Cc1cc(Cl)cc(C(=O)Nc2nc3c(C4CCCO4)cc(C(F)(F)F)cc3s2)c1O (stereo not shown) [Compound 71, 5-chloro-2-hydroxy-3-methyl-N-(4-(tetrahydrofuran-2-yl)-6-(trifluoromethyl)benzo[d]thiazol-2-yl)benzamide]
[1]
  GI50: < 5 µM
[2]
  minimal effective concentration: < 5 µM

## CN(C)CCc1cc(Cl)cc(C(=O)Nc2nc3ccc(C(F)(F)F)cc3s2)c1O [Compound 2 of U.S. Pat. No. 10,227,315]
[3]; 10 mg/kg oral gavage
  Rat Oral PK (in vivo) half-life (T1/2, hour): 66.9 h
[3]; plasma, 10 mg/kg, oral
  half-life: 66.9 h
[4]; 1 μM compound, 0.5 mg/ml microsomal protein, 37° C., 1 µM
  Metabolic stability half-life (T1/2, min, rat liver microsome): 2,132 min
[4]; 1 μM compound, 0.5 mg/ml microsomal protein, 37° C., read-out: Metabolic stability half-life (T1/2, min, rat liver microsome)
  half-life at 1 µM: 35.5 h
[4]; rat liver microsomes, read-out: rat microsome metabolic stability, half-life
  half-life at 1 µM: 35.5 h

## COCCOCc1cc(C(F)(F)F)cc2sc(NC(=O)c3cc(Cl)cc(C)c3O)nc12 [Compound 13, 5-chloro-2-hydroxy-N-(4-((2-methoxyethoxy)methyl)-6-(trifluoromethyl)benzo[d]thiazol-2-yl)-3-methylbenzamide]
[5]
  AUC at 24 h: 30000 to 60000 ng·h/mL
[6]
  C10%TMRE/Cmin-OCR: ~13
[2]
  minimal effective concentration: < 5 µM
[7]
  GI50: 5 to 20 µM

## CCc1cc(Cl)cc(C(=O)Nc2nc3ccc(C(F)(F)F)cc3s2)c1O [Compound 27 in U.S. Pat. No. 10,227,315, reference compound]
[5]; 10 mg/kg
  AUC(0-t) at 24 h: ~3000 ng·h/mL
[5]
  Fold increase over Compound 27 in U.S. Pat. No. 10,227,315: 1.0
[8]
  dose required to achieve efficacy, equivalent: 60 to 75 mg/kg/day
  dose required to achieve efficacy, in diet: 600-750 ppm

## Cc1cc(Cl)cc(C(=O)Nc2nc3ccc(C(F)(F)F)cc3s2)c1O [Compound 28 in U.S. Pat. No. 10,227,315, reference compound]
[5]; 10 mg/kg
  AUC(0-t) at 24 h: 4410 ng·h/mL
[5]
  Fold increase over Compound 27 in U.S. Pat. No. 10,227,315: 1.5
[8]
  dose required to achieve efficacy, equivalent: 60 to 75 mg/kg/day
  dose required to achieve efficacy, in diet: 600-750 ppm

## O=C(Nc1ccc([N+](=O)[O-])cc1Cl)c1cc(Cl)ccc1O [niclosamide ethanolamine]
[5]; 50 mg/kg
  AUC(0-t) at 24 h: ~1800 ng·h/mL
[8]
  dose required to achieve efficacy, equivalent: 150 mg/kg/day
  dose required to achieve efficacy, in diet: 1500 ppm

## C[C@@H]1CN(Cc2cc(Cl)cc(C(=O)Nc3nc4ccc(C(F)(F)F)cc4s3)c2O)C[C@H](C)O1.Cl [Compound 11, 5-chloro-3-((cis-2,6-dimethylmorpholino)methyl)-2-hydroxy-N-(6-(trifluoromethyl)benzo[d]thiazol-2-yl)benzamide]
[5]
  AUC at 24 h: 60000 to 120000 ng·h/mL
[9]
  minimal effective dose: 1 mg/kg
[2]
  minimal effective concentration: < 5 µM
[7]
  GI50: 5 to 20 µM

## O=[N+]([O-])c1ccc(O)c([N+](=O)[O-])c1 [DNP, 2,4-dinitrophenol]
[6]
  C10%TMRE/Cmin-OCR: ≤ 3
[10]
  half-life: days to weeks
[10]; human obesity treatment
  toxicity in humans: exhibited high levels of toxicity and had a narrow therapeutic window

## Cl.O=C(Nc1nc2ccc(C(F)(F)F)cc2s1)c1cc(Cl)cc(CN2CCOCC2)c1O [Compound 16, 5-chloro-2-hydroxy-3-(morpholinomethyl)-N-(6-(trifluoromethyl)benzo[d]thiazol-2-yl)benzamide]
[5]
  AUC at 24 h: 10000 to 30000 ng·h/mL
[11]; Homo sapiens, LX-2, hepatic stellate cell differentiation to myofibroblast-like cells, 24 hours, read-out: Minimal inhibitory concentration
  minimal effective concentration: 5 µM
[11]; in words
  inhibition of TGFβ-induced hepatic stellate cell differentiation: able to directly inhibit hepatic stellate cell (HSC) activation in vitro
[9]
  minimal effective dose: 1 mg/kg
[2]
  minimal effective concentration: < 5 µM
[2]; in words
  effect on oxygen consumption rate (OCR): increase OCR in the presence of oligomycin

## COCc1cc(C(F)(F)F)cc2sc(NC(=O)c3cc(Cl)cc(C)c3O)nc12 [Compound 68, 5-chloro-2-hydroxy-N-(4-(methoxymethyl)-6-(trifluoromethyl)benzo[d]thiazol-2-yl)-3-methylbenzamide]
[5]
  AUC at 24 h: 30000 to 60000 ng·h/mL
[1]
  GI50: < 5 µM
[2]
  minimal effective concentration: < 5 µM
